Results taken from US20260242414A1, “PEPTIDE EXPRESSION CONSTRUCTS AND USES THEREOF” (KYOTO PREFECTURAL PUBLIC UNIVERSITY CORPORATION, priority 2023, published 2026).

Tests used:
[1] = test system: GFPP1-10 expressing A549 cells; assay: mCherry and GFP expression in presence and absence of TMP; type: cell-based; conditions: cells transfected with mCherry-DHFR-P2A-GFPβ11, following addition of TMP, FIG. 7B
Source text: The mCherry-DHFR-P2A-GFPβ11 peptide expression unit was introduced into GFPP1-10 expressing A549 cells and mCherry and GFP expression levels were examined in the presence and absence of TMP.
Indeed, the percentage of cells expressing mCherry upon TMP treatment was similar in cells transfected with an m-Cherry only plasmid and cells transfected with a plasmid comprising the mCherry-DHFR-P2A-GFPβ11 peptide expression unit (FIGS. 7C and 7E).

H9c2 cells [2] = assay: Doxorubicin-induced hyperfission (MiNA) and cell death (DAPI/annexin5 FACS); type: cell-based
Description: The anti-apoptotic effect of peptide expression unit mRNA comprising the P110 coding sequence was assessed in H9c2 cells upon doxorubicin exposure, a treatment that induces mitochondrial stress, hyperfission, and cell death. Briefly, H92c cells were seeded on day 0 and lipofected with an mRNA of a peptide expression unit comprising P110 coding sequence on day 1 and treated with TMP. After 12 hours, the medium was changed, and the cells were treated with doxorubicin for 3 to 6 hours. As with LPS exposure assessments in Example 4, the effect of P110 on hyperfission was assessed via mitotracker green staining, followed by MiNA.
The increase in doxorubicin-induced fission was accompanied by an increase in footprint, a measure of mitochondrial mass, due to the expression of P110 from mRNA expression units, and by an increase in the length, number, and area of branching (FIGS. 9A-9F).

Drp1-Fis1 = assay: Immunoprecipitation with Fis1 followed by immunoblotting with Drp1; type: cell-based; conditions: doxorubicin treatment, FIG. 10I-10K
Drp1-Fis1, sequence (O00429 whole entry): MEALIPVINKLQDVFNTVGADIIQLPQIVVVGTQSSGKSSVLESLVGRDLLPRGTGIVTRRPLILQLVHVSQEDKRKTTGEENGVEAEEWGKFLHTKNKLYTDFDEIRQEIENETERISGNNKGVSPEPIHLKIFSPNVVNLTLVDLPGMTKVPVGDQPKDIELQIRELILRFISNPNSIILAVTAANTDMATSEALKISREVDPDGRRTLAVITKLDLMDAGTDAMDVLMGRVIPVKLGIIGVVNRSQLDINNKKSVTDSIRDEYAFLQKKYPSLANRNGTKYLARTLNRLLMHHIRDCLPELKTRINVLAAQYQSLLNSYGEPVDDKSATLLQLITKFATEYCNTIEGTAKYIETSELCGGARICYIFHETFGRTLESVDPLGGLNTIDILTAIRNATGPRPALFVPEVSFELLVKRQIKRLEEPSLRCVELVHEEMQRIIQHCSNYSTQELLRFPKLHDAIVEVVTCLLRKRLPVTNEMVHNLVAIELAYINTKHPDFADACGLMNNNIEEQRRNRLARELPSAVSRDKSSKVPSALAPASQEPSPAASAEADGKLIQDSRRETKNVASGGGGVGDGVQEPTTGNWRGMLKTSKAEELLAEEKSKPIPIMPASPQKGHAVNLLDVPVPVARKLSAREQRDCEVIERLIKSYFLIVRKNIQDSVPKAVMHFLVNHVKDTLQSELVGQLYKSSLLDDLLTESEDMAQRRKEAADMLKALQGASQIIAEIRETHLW
Description: Association of Drp1 and Fis1 is an intracellular PPI that is associated with mitochondrial dysfunction. To determine whether interaction of Fis1 and Drp1 was associated with the accumulation of Drp1 at the mitochondrial membrane, immunoprecipitation with Fis1 followed by immunoblotting with Drp1 was performed.

H9c2 cells [3] = assay: Mitochondrial respiration, Seahorse XF Cell Mito Stress Test flux analysis; type: cell-based; conditions: doxorubicin treatment; for mitochondrial respiration (oxygen consumption rate): FIG. 9I; for basal respiration: FIG. 9J; for ATP production: FIG. 9J-9M; for maximum respiration: FIG. 9K; for spare respiratory capacity: FIG. 9M; for proton leakage: FIG. 9N; for non-mitochondrial oxygen consumption: FIG. 9O
Description: Next, the effect of P110 expression on mitochondrial hyperfission was evaluated in the context of mitochondrial respiratory function. Briefly, oligomycin (2 μM), carbonyl cyanide p-trifluoromethoxyphenyl hydrazone (FCCP, 2 μM) and rotenone/antimycin A (0.5 μM), which were adjusted using the reagents in the Seahorse XF Cell Mito Stress Test Kit (103015-100, Agilent Technologies), were sequentially added to each well with 1×10^5 cells after baseline measurements with an XFe96 extracellular flux analyzer (Agilent Technologies, Santa Clara, CA, USA), and data were presented as oxygen consumption rate (pmol/min).

H9c2 cells [4] = assay: Western blot of apoptosis-associated proteins (cleaved caspase-3, cytochrome c, mitochondrial Drp1); type: cell-based; conditions: for Drp1 in mitochondrial fractions (accumulation/aggregation): doxorubicin exposure, FIG. 10G-10H
Description: (§1) P110-expressing cells counteracted doxorubicin-induced apoptosis as well as gene transfer-associated induction of cell death (FIGS. 10A-10B). Next, doxorubicin-induced activation of caspase-3, which is a cysteine-aspartic acid protease that plays a central role in the execution-phase of cell apoptosis, was evaluated.
Hyperfission-associated release of cytochrome c from mitochondria triggers apoptosis; therefore, the release of cytochrome c in response to doxorubicin was evaluated. […] Given that P110 inhibits the recruitment of Drp1 to the mitochondrial membrane during fission, Drp1 in mitochondrial fractions were evaluated to determine whether the introduction of P110 mRNA affected this mechanism.

H9c2 cells [5] = assay: LPS-induced hyperfission: mitotracker green/MiNA, MitoSOX, TMRM; type: cell-based; conditions: for mitochondrial ROS (MitoSOX): FIG. 8J-8K
Description: Next, lipopolysaccharide (LPS) was used as an external stressor to trigger hyperfission. Briefly, H92c cells were seeded on day 0 and lipofected with an mRNA of a peptide expression unit comprising P110 coding sequence on day 1 and treated with TMP. After 12 hours, the medium was changed, and the cells were treated with LPS for 12 hours and mitochondrial morphology of cells was evaluated using mitotracker green staining and Mitochondrial Network Analysis (MiNA). LPS-induced changes in mitochondrial reactive oxygen species (ROS) production were evaluated using MitoSOX staining. LPS-induced changes in mitochondrial membrane potential were evaluated using TMRM staining. For the purposes of this assessment, mCherry-positive cells were assumed to express transgenic P110, whereas mCherry-negative cells were assumed to lack transgenic P110 and were assessed separately (FIG. 8D). […] LPS treatment was associated with an increase in mitochondrial ROS, which was inhibited in P110-expressing cells (FIGS. 8J-8K), and with an increase in mitochondrial membrane potential per unit volume (FIGS. 8L-8N). Taken together, expression of P110 in cells suppressed mitophagy-related changes induced by LPS treatment.

H9c2 cells [6] = assay: Doxorubicin-induced apoptosis, FACS with DAPI and Annexin V; type: cell-based; conditions: doxorubicin-treated cells, FIG. 10A-10B
Description: as §1

[7] = molecular target: GFP β strand 1-10 (GFPβ1-10); assay: cell-based or functional assay
[8] = doxorubicin 3 to 6 hours, FIG. 9A-9F

| Compound | Drp1 co-immunoprecipitated with Fis1 (Drp1-Fis1) | mitochondrial respiration (oxygen consumption rate) (H9c2 cells [3]) | basal respiration (H9c2 cells [3]) | ATP production (H9c2 cells [3]) | maximum respiration (H9c2 cells [3]) | spare respiratory capacity (H9c2 cells [3]) | proton leakage (H9c2 cells [3]) | non-mitochondrial oxygen consumption (H9c2 cells [3]) | Drp1 in mitochondrial fractions (accumulation/aggregation) (H9c2 cells [4]) | mitochondrial ROS (MitoSOX) (H9c2 cells [5]; LPS treatment 12 hours) | further results |
| --- | --- | --- | --- | --- | --- | --- | --- | --- | --- | --- | --- |
| COc1cc(Cc2cnc(N)nc2N)cc(OC)c1OC [TMP, trimethoprim] | – | – | – | – | – | – | – | – | – | – | mCherry expression (FACS) [1]: increased sharply |
| COc1cccc2c1C(=O)c1c(O)c3c(c(O)c1C2=O)C[C@@](O)(C(=O)CO)C[C@@H]3O[C@H]1C[C@H](N)[C@H](O)[C@H](C)O1 [doxorubicin] | significantly enhanced | decreased | significantly decreased | significantly decreased | significantly decreased | significantly decreased | decrease | significantly decreased | strong accumulation | – | cell death, DAPI/annexin5 double positive cells (FACS) (H9c2 cells [2]; doxorubicin-treated H9c2 cells, FIG. 9G-9H): ~15 % of cells |
| DLLPRGT [P110] | restored to almost control levels | attenuated | significant attenuation | significant attenuation | significant attenuation | comparable to that observed in untreated control cells | slightly improved | significant attenuation | significantly prevented | inhibited | indications of hyperfission: branching length, area of branching points, number of branching points (MiNA) (H9c2 cells [5]; mCherry-positive cells, LPS 12 hours, FIG. 8D-8I): reversed indications of hyperfission; footprint, a measure of mitochondrial mass (MiNA) (H9c2 cells [2]; [8]): increase; length, number, and area of branching (MiNA) (H9c2 cells [2]; [8]): increase; doxorubicin-induced apoptosis (DAPI/Annexin V FACS) (H9c2 cells [6]): counteracted; non-mitochondrial apoptotic pathways (H9c2 cells [4]; doxorubicin): unaffected; cytochrome c release (H9c2 cells [4]; doxorubicin, FIG. 10E-10F): completely suppressed; cleaved caspase-3 expression (western blot) (H9c2 cells [4]; effects of gene transfer method and doxorubicin, FIG. 10C-10D): reduced |
| GFP β strand 11 (GFPβ11) (peptide) | – | – | – | – | – | – | – | – | – | – | GFP-positive fraction of mCherry-positive cells (split GFP complementation), FACS, H9c2 cells [7]: 40% |
| lipopolysaccharide [LPS] | – | – | – | – | – | – | – | – | – | increase | mitochondrial membrane potential per unit volume (TMRM) (H9c2 cells [5]; LPS treatment 12 hours, FIG. 8L-8N): increase |
